The structures appear in SMILES notation. Like-named read-outs stand apart in the source and are kept apart here.

Series [1] relates to nonresistant strain of bed bug. Conditions: for Residual Effect (% Knockdown & Mortality/hrs) 24: 24 hrs; for Residual Effect (% Knockdown & Mortality/hrs) 48: 48 hrs; for Residual Effect (% Knockdown & Mortality/hrs) 72: 72 hrs. Here is the method:
The compositions and individual components thereof were prepared to provide the appropriate rates of application for combinations of acetamiprid, chlorfenapyr, and rosemary oil, as well as acetamiprid, chlorfenapyr, and rosemary oil paired and alone. The insecticide formula(s) were aliquoted (100 μL) into a glass petri dish (100 mm). Filter paper was placed on top of the solution. Ten adult bed bugs were then placed on top of the filter paper and morbidity and moribundity (knockdown) and mortality was recorded at 5 minutes for each treatment combination and the control. After 2 hours, bed bugs were removed from the treated surface and placed in a holding chamber. Bed bug morbidity, moribund, and mortality was recorded every 24 hours for 7 days.
Dash indicates no knockdown or mortality during exposure.

Series [2] has as its system adult bed bugs resistant strain (UMC) colony. Briefly: Contact lethal time of pyrethroids and rosemary oil on treated filter paper, Example 4. The format is in vivo, bed bug. Conditions: rate 0.01 % by weight. On the procedure:
The control is 100 μL […]. Filter paper was then placed on top of the solution.

As for `CC(=NC#N)N(C)Cc1ccc(Cl)nc1` [Acetamiprid, N-[(6-chloro-3-pyridyl)methyl]-N′-cyano-N-methyl-acetamidine], in series [1] (rate 0.01 % by weight), the “2 hour exposure (min) LT50” value stood at 39.3 min, the “2 hour exposure (min) LT99” value is 38038.1 min, the “Residual Effect (% Knockdown & Mortality/hrs) 24” value stood at 10.0% and the “Residual Effect (% Knockdown & Mortality/hrs) 48” value stood at 20.0%. Moreover, in series [1] (rate 0.01 % by weight), the “Residual Effect (% Knockdown & Mortality/hrs) 72” value amounted to 20.0%. For the same compound, in series [1] (rate 0.1 % by weight), the “2 hour exposure (min) LT50” value worked out at 22.4 min, the “2 hour exposure (min) LT99” value worked out at 12565.9 min, the “Residual Effect (% Knockdown & Mortality/hrs) 24” value turned out to be 20.0% and the “Residual Effect (% Knockdown & Mortality/hrs) 48” value amounted to 10.0%. Further, the “Residual Effect (% Knockdown & Mortality/hrs) 72” value in series [1] (rate 0.1 % by weight) came out at 10.0%. Further, in series [1] (rate 1.0 % by weight), the “2 hour exposure (min) LT50” value is listed as 7.0 min, the “2 hour exposure (min) LT99” value was 510.8 min, the “Residual Effect (% Knockdown & Mortality/hrs) 24” value is listed as 40.0% and the “Residual Effect (% Knockdown & Mortality/hrs) 48” value is 30.0%. Also, in series [1] (rate 1.0 % by weight), the “Residual Effect (% Knockdown & Mortality/hrs) 72” value is given as 50.0%.
Regarding `CCOCn1c(-c2ccc(Cl)cc2)c(C#N)c(Br)c1C(F)(F)F` [Chlorfenapyr, 4-Bromo-2-(4-chlorophenyl)-1-ethoxymethyl-5-trifluoromethyl-1H-pyrrole-3-carbonitrile], in series [1] (rate 0.01 % by weight), the “Residual Effect (% Knockdown & Mortality/hrs) 24” value is given as 0.0%, the “Residual Effect (% Knockdown & Mortality/hrs) 48” value amounted to 0.0% and the “Residual Effect (% Knockdown & Mortality/hrs) 72” value is listed as 0.0%. Further, in series [1] (rate 0.1 % by weight), the “Residual Effect (% Knockdown & Mortality/hrs) 24” value was 30.0%, the “Residual Effect (% Knockdown & Mortality/hrs) 48” value was 50.0% and the “Residual Effect (% Knockdown & Mortality/hrs) 72” value worked out at 70.0%. For the same compound, in series [1] (rate 1.0 % by weight), the “Residual Effect (% Knockdown & Mortality/hrs) 24” value was found to be 40.0%, the “Residual Effect (% Knockdown & Mortality/hrs) 48” value is reported as 80.0% and the “Residual Effect (% Knockdown & Mortality/hrs) 72” value turned out to be 100.0%.
Turning to `CC1(C)C(C=C(Cl)Cl)C1C(=O)OCc1cccc(Oc2ccccc2)c1` (stereo not shown) [Permethrin, permethrin], in series [2], the “LT50” value was determined as 20.78 min and the “LT95” value was 490.348 min.
On the same counts, the results for `CC(C)=CC1C(C(=O)OCN2C(=O)C3=C(CCCC3)C2=O)C1(C)C` (stereo not shown) [Tetramethrin, tetramethrin] are 14000 min and 6.5e+06 min.

Source of the values: US9743676B2, “Pesticidal compositions comprising a solid insecticide and an essential oil” (AirRx Antimicrobial Sciences Inc., priority 2015, dated 2017).
